Consider 27 compounds from US10544120B2, “Biaryl kinase inhibitors” (BRISTOL-MYERS SQUIBB COMPANY, priority 2015, dated 2020).

For the assay, the target named is GST-Xa-hAAK1 (Homo sapiens (Human), UniProt Q2M2I8). The assay is described as follows: AAK1 Kinase Assay. Format: biochemical. To be noted: bacterially expressed GST-Xa-hAAK1 3.5 nM; ATP 22 μM; fluoresceinated peptide 1.5 μM; 3 hours at room temperature; Caliper LabChip 3000. The method, then:
The assays were performed in U-bottom 384-well plates. […] The reactions were initiated by the combination of bacterially expressed, GST-Xa-hAAK1 with substrates and test compounds. The reactions were incubated at room temperature for 3 hours and terminated by adding 60 μl of 35 mM EDTA buffer to each sample. The reactions were analyzed on the Caliper LabChip 3000 (Caliper, Hopkinton, Mass.) by electrophoretic separation of the fluorescent substrate and phosphorylated product. […] Compounds were dissolved at 10 mM in dimethylsulfoxide (DMSO) and evaluated at eleven concentrations. IC50 values were derived by non-linear regression analysis.

Sequence of GST-Xa-hAAK1 (Q2M2I8 whole entry): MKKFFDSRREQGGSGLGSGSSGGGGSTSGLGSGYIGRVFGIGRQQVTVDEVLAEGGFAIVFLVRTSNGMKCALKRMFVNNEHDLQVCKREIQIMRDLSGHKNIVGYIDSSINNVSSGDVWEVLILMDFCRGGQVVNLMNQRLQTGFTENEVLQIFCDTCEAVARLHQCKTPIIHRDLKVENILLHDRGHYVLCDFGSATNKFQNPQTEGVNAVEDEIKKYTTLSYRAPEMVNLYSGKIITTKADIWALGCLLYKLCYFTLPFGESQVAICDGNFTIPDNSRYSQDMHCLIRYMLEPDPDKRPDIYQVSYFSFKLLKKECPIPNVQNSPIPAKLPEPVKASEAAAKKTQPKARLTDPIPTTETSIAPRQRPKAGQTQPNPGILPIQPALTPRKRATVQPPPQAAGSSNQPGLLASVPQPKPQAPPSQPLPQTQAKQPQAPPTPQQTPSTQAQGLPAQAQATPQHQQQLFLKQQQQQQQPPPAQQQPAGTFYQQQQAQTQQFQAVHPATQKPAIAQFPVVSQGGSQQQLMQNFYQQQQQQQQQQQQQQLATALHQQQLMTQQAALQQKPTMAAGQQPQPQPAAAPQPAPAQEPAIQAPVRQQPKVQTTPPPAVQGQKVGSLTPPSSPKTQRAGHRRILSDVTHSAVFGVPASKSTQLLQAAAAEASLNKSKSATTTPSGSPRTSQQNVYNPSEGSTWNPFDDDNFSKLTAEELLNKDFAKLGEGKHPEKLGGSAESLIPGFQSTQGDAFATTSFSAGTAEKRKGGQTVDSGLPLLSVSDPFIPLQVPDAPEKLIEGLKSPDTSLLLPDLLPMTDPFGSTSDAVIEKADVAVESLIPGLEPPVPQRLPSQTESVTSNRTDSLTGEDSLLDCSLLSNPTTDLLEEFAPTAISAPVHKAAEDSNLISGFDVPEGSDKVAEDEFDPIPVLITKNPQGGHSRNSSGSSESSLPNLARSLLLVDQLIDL

What is called IC50 is the point on the concentration scale where inhibition reaches its midpoint. Take `Cc1nccc(-c2ccc(OCC(N)(CC(C)C)C(F)(F)F)c(C)n2)n1` (single isomer, unassigned) [Example 359, 1,1,1-trifluoro-4-methyl-2-(((2-methyl-6-(2-methylpyrimidin-4-yl)pyridin-3-yl)oxy)methyl)pentan-2-amine]: the IC50 was 865 nM.

Consider `Cc1nccc(-c2ccc(OCC(N)(CC(C)C)C(F)(F)F)c(C)n2)n1` (single isomer, unassigned) [Example 360, 1,1,1-trifluoro-4-methyl-2-(((2-methyl-6-(2-methylpyrimidin-4-yl)pyridin-3-yl)oxy)methyl)pentan-2-amine], for which the IC50 turned out to be 1250 nM. As to `Cc1cc(-c2cc(C(F)(F)F)c(OCC(C)(N)CC(C)C)cn2)ccn1` (stereo in doubt) [Example 164, (R)-2,4-dimethyl-1-((2′-methyl-4-(trifluoromethyl)-[2,4′-bipyridin]-5-yl)oxy)pentan-2-amine], the IC50 stood at 254 nM. With `Cc1nccc(-c2cnc(OC[C@](C)(N)CC(C)C)c(C)c2)n1` [Example 263, (R)-2,4-dimethyl-1-((3-methyl-5-(2-methylpyrimidin-4-yl)pyridin-2-yl)oxy)pentan-2-amine], the IC50 was 950 nM.

Regarding `Cc1nccc(-c2cnc(OC[C@@](C)(N)CC(C)C)c(C)c2)n1` [Example 268, (S)-2,4-dimethyl-1-((3-methyl-5-(2-methylpyrimidin-4-yl)pyridin-2-yl)oxy)pentan-2-amine], the IC50 worked out at 11 nM. In the case of `COC(=O)Nc1cc(-c2ccc(OCC(N)(CC(C)C)C(F)(F)F)c(C)n2)ccn1` (stereo not drawn) [Example 273, methyl 5-(2-amino-4-methyl-2-(trifluoromethyl)pentyloxy)-6-methyl-2,4′-bipyridin-2′-ylcarbamate], the IC50 turned out to be 226 nM. Take `Cc1nccc(-c2cnc(OCC(N)(CC(C)C)C(F)(F)F)c(C)c2)n1` (stereo not drawn) [Example 274, 1,1,1-trifluoro-4-methyl-2-(((3-methyl-5-(2-methylpyrimidin-4-yl)pyridin-2-yl)oxy)methyl)pentan-2-amine]: the IC50 is 986 nM. The same measure for `CC(C)C[C@](C)(N)COc1ccc(-c2cc(N)ncn2)cc1C(F)(F)F` [Example 278, (S)-6-(4-((2-amino-2,4-dimethylpentyl)oxy)-3-(trifluoromethyl)phenyl) pyrimidin-4-amine]: 1.9 nM; for `Cc1nccc(-c2ccc(OC[C@@](C)(N)CC(C)C)c(CF)n2)n1` [Example 279]: 23 nM; for `COC(=O)Nc1cc(-c2ccc(OC[C@@](C)(N)CC(C)C)c(CF)n2)ccn1` [Example 280, (S)-methyl (5-((2-amino-2,4-dimethylpentyl)oxy)-6-(fluoromethyl)-[2,4′-bipyridin]-2′-yl)carbamate]: 1.1 nM. To `CC(C)C[C@](C)(N)COc1ccc(-c2cc(N)ncn2)cc1Cl` [Example 285, (S)-6-(4-((2-amino-2,4-dimethylpentyl)oxy)-3-chlorophenyl)pyrimidin-4-amine] belongs 1.1 nM; to `Cc1nccc(-c2ccc(OC[C@@](C)(N)CC(C)C)c(C(F)(F)F)c2)n1` [Example 290, (S)-2,4-dimethyl-1-(4-(2-methylpyrimidin-4-yl)-2-(trifluoromethyl)phenoxy)pentan-2-amine], 0.6 nM. As for `CC(C)C[C@](C)(N)COc1ccc(-c2ccnc(N)c2)cc1C(F)(F)F` [Example 297, (S)-4-(4-((2-amino-2,4-dimethylpentyl)oxy)-3-(trifluoromethyl)phenyl)pyridin-2-amine], the IC50 was 0.3 nM. In the case of `Cc1nccc(-c2cnc(OC[C@@](C)(N)CC(C)C)c(-c3cnco3)c2)n1` [Example 298, (S)-2,4-dimethyl-1-((5-(2-methylpyrimidin-4-yl)-3-(oxazol-5-yl)pyridin-2-yl)oxy)pentan-2-amine], the IC50 was determined as 45 nM.

For the compound `COC(=O)Nc1cc(-c2ccc(OC[C@@](C)(N)CC(C)C)c(C#N)c2)cnn1` [Example 300, (S)-methyl (5-(4-((2-amino-2,4-dimethylpentyl)oxy)-3-cyanophenyl)pyridazin-3-yl)carbamate], the IC50 came to 246 nM. The same measure for `COC(=O)Nc1cc(-c2ccc(OC[C@@](C)(N)CC(C)C)c(Cl)c2)cnn1` [Example 301, (S)-methyl (5-(4-((2-amino-2,4-dimethylpentyl)oxy)-3-chlorophenyl)pyridazin-3-yl)carbamate]: 58 nM; for `COC(=O)Nc1nccc(-c2cnc(OC[C@](C)(N)CC(C)C)c(Cl)c2)n1` [Example 304, (R)-methyl(4-(6-((2-amino-2,4-dimethylpentyl)oxy)-5-chloropyridin-3-yl)pyrimidin-2-yl)carbamate]: 298 nM. Take `COC(=O)Nc1nccc(-c2ccc(OC[C@@](C)(N)CC(C)C)c(C#N)c2)n1` [Example 305, (S)-methyl (4-(4-((2-amino-2,4-dimethylpentyl)oxy)-3-cyanophenyl)pyrimidin-2-yl)carbamate]: the IC50 was determined as 1 nM. As for `COC(=O)Nc1nccc(-c2ccc(OC[C@@](C)(N)CC(C)C)c(C(F)(F)F)c2)n1` [Example 306, (S)-methyl(4-(4-((2-amino-2,4-dimethylpentyl)oxy)-3-(trifluoromethyl)phenyl)pyrimidin-2-yl)carbamate], the IC50 came to 0.6 nM.

For `COC(=O)Nc1nccc(-c2ccc(OC[C@@](C)(N)CC(C)C)c(Cl)c2)n1` [Example 307, (S)-methyl (4-(4-((2-amino-2,4-dimethylpentyl)oxy)-3-chlorophenyl)pyrimidin-2-yl)carbamate], the IC50 is 0.9 nM. Consider `Cc1cc(-c2ccc(OC[C@@](C)(N)CC(C)C)c(Cl)c2)ncn1` [Example 308, (S)-1-(2-chloro-4-(6-methylpyrimidin-4-yl)phenoxy)-2,4-dimethylpentan-2-amine], for which the IC50 was found to be 12 nM.

As for `Cc1cc(-c2ccc(OC[C@@](C)(N)CC(C)C)c(C(F)(F)F)c2)ncn1` [Example 309, (S)-2,4-dimethyl-1-(4-(6-methylpyrimidin-4-yl)-2-(trifluoromethyl)phenoxy)pentan-2-amine], the half-inhibitory concentration (IC50) is 8.5 nM.

For `COC(=O)Nc1nccc(-c2ccc(OC[C@@](C)(N)CC(C)C)c(F)c2)n1` [Example 310, (S)-methyl (4-(4-((2-amino-2,4-dimethylpentyl)oxy)-3-fluorophenyl)pyrimidin-2-yl)carbamate], the IC50 stood at 9.1 nM.

`CC(C)C[C@](C)(N)COc1ccc(-c2ccnc(NC(=O)OC(C)C)n2)cc1C(F)(F)F` [Example 311, (S)-isopropyl (4-(4-((2-amino-2,4-dimethylpentyl)oxy)-3-(trifluoromethyl)phenyl)pyrimidin-2-yl)carbamate]: the IC50 was found to be 3.9 nM. As for `COC(=O)Nc1nccc(-c2ccc(OC[C@@](C)(N)CC(C)C)c(C)n2)n1` [Example 312, (S)-methyl (4-(5-((2-amino-2,4 dimethylpentyl)oxy)-6-methylpyridin-2-yl)pyrimidin-2-yl)carbamate], the half-maximal inhibitory concentration (IC50) was found to be 4.9 nM. Consider `Cc1nc(-c2ccnc(N)n2)ccc1OC[C@@](C)(N)CC(C)C` [Example 313, (S)-4-(5-((2-amino-2,4-dimethylpentyl)oxy)-6-methylpyridin-2-yl)pyrimidin-2-amine], for which the IC50 was 2.4 nM. On to `CCOC(=O)Nc1nccc(-c2ccc(OC[C@@](C)(N)CC(C)C)c(C(F)(F)F)c2)n1` [Example 314, (S)-ethyl (4-(4-((2-amino-2,4-dimethylpentyl)oxy)-3-(trifluoromethyl)phenyl)pyrimidin-2-yl)carbamate], for which the IC50 was determined as 1.2 nM.
